Assay results as given in patent US20230072421A1, “TARGETED RADIOPHARMACEUTICALS FOR THE DIAGNOSIS AND TREATMENT OF PROSTATE CANCER” (Bayer AS, priority 2019, published 2023).

Legend:
[1] = tested on: LNCaP cells; experiment: Cell proliferation assay (CellTiter-Glo, 5-day exposure), LNCaP; assay type: cell-based, human; settings: LNCaP, 1000 cells/well; Th-227 labelled at 375 kBq/nmol; 5-day exposure; mean of 1 to 6 experiments
Procedure: Inhibition of cell proliferation of Thorium-227 labeled PMSA SMOL ligands was tested different prostate cancer cell lines, namely 22Rv1, VCaP, C4-2 (all from ATCC, Manassas, Va., USA) and LNCaP (DMSZ, Braunschweig). Cells were seeded using the following conditions in 384 well plates (Corning) in 30 μl of growth media at 4000 cells/well for VCaP cells and 1000 cells/well for 22Rv1, C4-2 and LNCaP cells.
Cells were cultivated an incubator at 37° C. and 5% C02 over night. On the following days cells were treated in triplicates with serial dilutions of PSMA-SMOLs labeled with Th-227 at a specific activity of 375 kBq/nmol (RCP>70% as assessed by iTLC analysis; compounds where RCP was between 50-70% in individual experiments are marked with an * in the table) using a D300e Digital Dispenser (Tecan). In sister plates cell viability at treatment start (d=0) was determined using CellTiter-Glo® assay (CTG, Promega, Madison, Wis., USA), by adding 30 μl per well CTG solution, incubation for 10 min and reading of Luminescence in a PheraStarFSX instrument (BMG Labtech). After a 5-day exposure in the presenced of test compounds, cell viability of treated or untreated control cells was determined again using CellTiter-Glo® assay (Promega, Madison, Wis., USA). […] The DRC software is a Biobook Spreadsheet that was developed by Bayer AG and Bayer Business Services on the IDBS E-Workbook Suite platform (IDBS: ID Business Solutions Ltd., Guildford, UK).

[2] = tested on: C4-2 cells; experiment: Cell proliferation assay (CellTiter-Glo, 5-day exposure), C4-2; assay type: cell-based; settings: C4-2, 1000 cells/well, Th-227 labelled at 375 kBq/nmol, mean of 1 to 6 experiments
In short: (§1)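 Thorium-227-labeled PSMA small-molecule ligands were applied for 5 days to prostate cancer lines plated overnight at 1000 cells/well (22Rv1, C4-2, LNCaP) or 4000 cells/well (VCaP). CellTiter-Glo luminescence gave viability at day 0 in sister plates and again after exposure.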

[3] = tested on: VCaP cells; experiment: Cell proliferation assay (CellTiter-Glo, 5-day exposure), VCaP; assay type: cell-based; settings: 4000 cells/well, Th-227 labelled at 375 kBq/nmol, mean of 1 to 6 experiments
In short: as §1

[4] = tested on: LNCaP human prostate cancer cells; experiment: LNCaP xenograft efficacy study (T/C tumor area); assay type: in vivo, SCID mice; settings: Example V; day 27 after start of therapy; once 750 kBq/kg
In short: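 SCID mice with testosterone pellet bearing s.c. flank LNCaP xenografts (5×10^6 cells in Matrigel) were treated i.v. with a defined radioactive dose once tumors reached 35-50 mm^2 (n=10/group). Tumor area (caliper, longest diameter × perpendicular) measured 2-3× weekly; T/C ratio calculated from tumor areas when vehicle group closed.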

[5] = tested on: 22Rv1 cells; experiment: Cell proliferation assay (CellTiter-Glo, 5-day exposure), 22Rv1; assay type: cell-based; settings: 22Rv1, 1000 cells/well, Th-227 labelled at 375 kBq/nmol, mean of 1 to 6 experiments
In short: as §1

[6] = biological target: T1, PSMA-expressing LNCaP cells (Homo sapiens, UniProt Q04609); experiment: Internalization assay (membrane bound and internalized Th-227); assay type: cell-based; settings: 10 nM radiolabeled compound, Th-227 at 375 kBq/nmol, triplicates
T1 construct: PSMA-expressing LNCaP cells; endogenous in cells; host or cells: LNCaP
Procedure: For internalization assays 24 well plates (#3526, Corning) were coated with 200 μl Poly-L-Lysine (0.1 mg/ml, #3438-100-01, Fa. Cultrex) per well for 2 h at 37° C. […] Cells were incubated at 37° C. and 5% CO2 over night. On the following day 400 μl of the media were removed and a total of 200 μl growth medium added supplemented with PSMA-SMOLs labeled with Th-227 at 375 kBq/nmol in triplicates. Radiochemical purity of the labeling was analyzed by instant thin layer chromatography and found to be above 70% for all compounds used. The final concentration of radiolabeled SMOLs was in the test wells was 10 nM. Cells were incubated for 30 min or 2 h. After the incubation time supernatants were taken off and cells washed with PBS. Thereafter cells were washed twice with 0.2 ml 50 mM Glycine-HCl buffer (#55097, Sigma Aldrich) and once with PBS and the washing solutions combined in counting vials (#TK75-018, Fa. Corning) and subjected to gamma counting (1470 Wizard automatic gamma counter, Wallac). The resulting counts were attributed to membrane bound radioactivity. Cells were then lysed with 500 μl 0.3N NaOH (#181691.1211, Fa. PanReac AppliChem ITW Reagents) followed by another wash with 500 μl PBS. The NaOH lysate as well as the final wash were combined in vials and subjected to gamma counting as described above. Measured radioactivity was attributed to internalized fraction. Results were calculated as fmol of Th-227 per/10^cells in the membrane bound and internalized fractions from triplicate values.

T1 sequence (Q04609 whole entry): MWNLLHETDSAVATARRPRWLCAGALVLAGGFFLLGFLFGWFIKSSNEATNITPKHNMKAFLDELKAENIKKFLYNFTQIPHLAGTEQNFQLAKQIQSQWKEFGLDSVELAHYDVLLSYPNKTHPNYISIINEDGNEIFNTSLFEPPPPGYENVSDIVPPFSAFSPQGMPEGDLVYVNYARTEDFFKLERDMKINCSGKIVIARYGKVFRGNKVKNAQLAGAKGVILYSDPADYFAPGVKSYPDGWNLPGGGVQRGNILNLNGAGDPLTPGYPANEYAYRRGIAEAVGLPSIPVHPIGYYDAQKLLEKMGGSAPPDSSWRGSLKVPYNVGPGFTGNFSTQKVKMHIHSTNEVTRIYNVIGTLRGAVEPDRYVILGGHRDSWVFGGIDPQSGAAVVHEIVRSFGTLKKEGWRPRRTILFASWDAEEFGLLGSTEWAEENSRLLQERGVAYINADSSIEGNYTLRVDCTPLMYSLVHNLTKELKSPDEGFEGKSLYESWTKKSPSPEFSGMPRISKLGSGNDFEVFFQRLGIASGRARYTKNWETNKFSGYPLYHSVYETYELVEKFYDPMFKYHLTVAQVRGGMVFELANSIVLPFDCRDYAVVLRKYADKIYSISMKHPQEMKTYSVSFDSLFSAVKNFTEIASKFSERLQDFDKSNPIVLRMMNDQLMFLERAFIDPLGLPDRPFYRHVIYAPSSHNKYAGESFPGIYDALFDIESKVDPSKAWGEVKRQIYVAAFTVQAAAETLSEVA

Row | Compound | Proliferation assay on cancer cell lines by TTCs Default Pivot #3 IC50 [kBq/mL] LnCap 1000cells 375kBq/nmol (mean) [1] [kBq/mL] | Proliferation assay on cancer cell lines by TTCs Default Pivot #3 IC50 [kBq/mL] C4-2 1000cells 375kBq/nmol (mean) [2] [kBq/mL] | Proliferation assay on cancer cell lines by TTCs Default Pivot #3 IC50 [kBq/mL] VCap 4000cells 375kBq/nmol (mean) [3] [kBq/mL] | T/Carea [4] | Proliferation assay on cancer cell lines by TTCs Default Pivot #3 IC50 [kBq/mL] 22Rv1 1000cells 375kBq/nmol (mean) [5] [kBq/mL] | Internalized in LNCaP fmol/10^6 cells 30 min ([6]; 30 min incubation) [fmol/10^6 cells] | Membrane bound in LNCaP fmol/10^6 cells 30 min ([6]; 30 min incubation) [fmol/10^6 cells] | Internalized in LNCaP fmol/10^6 cells 2 h ([6]; 2 h incubation) [fmol/10^6 cells] | Membrane bound in LNCaP fmol/10^6 cells 2 h ([6]; 2 h incubation) [fmol/10^6 cells]
1 | CC1=CC2=C3[O][227Th-4]45678([O]C9=C(C=C(C)N(CC(=O)O)C9=[O+]4)C(=O)NCCN(CCCN(CCNC(=O)C4=C([O]5)C(=[O+]6)N(CC(=O)O)C(C)=C4)CCNC(=O)C4=C([O]7)C(=[O+]8)N(CC(=O)NC[C@H]5CC[C@H](C(=O)N[C@@H](Cc6ccc7ccccc7n6)C(=O)NCCCC[C@H](NC(=O)N[C@@H](CCC(=O)O)C(=O)O)C(=O)O)CC5)C(C)=C4)CCNC2=O)[O+]=C3N1CC(=O)O [Example 17-C monomer-227Th] | 0.04 | 0.5 | 1.48 | 0.36 | 0.86 | – | – | – | –
2 | Cn1ccc2c(c1=O)[O][Th]13[O]c4c(ccn(C)c4=O)C(=O)NCCN(CCNC2=O)CC(Cc2ccc(NC(=O)CCC(=O)N[C@H](CCCNC(=N)N)C(=O)N[C@H](CCCNC(=N)N)C(=O)NC[C@H]4CC[C@H](C(=O)N[C@@H](Cc5ccc6ccccc6c5)C(=O)NCCCC[C@H](NC(=O)N[C@@H](CCC(=O)O)C(=O)O)C(=O)O)CC4)cc2)CN(CCNC(=O)c2ccn(C)c(=O)c2[O]1)CCNC(=O)c1ccn(C)c(=O)c1[O]3 (stereo partly shown) [Example 46-E-227Th] | 0.18 | 0.95 | 1.37 | – | 0.68 | 34 | 63 | 104 | 234
